Data set [1] has as its system Plasmodium berghei. In words: Antimalarial effect against trophozoite-induced Plasmodium berghei in mice (Mus musculus) at 80 mg/kg subcutaneous dose. The data set is classed as functional.
Data set [2] relates to Mus musculus. In words: Number of toxic deaths at a dose of 640 mg/kg. The note with it: in vivo. The data set is classed as toxicity, organism-based. On the set-up: dose 640 mg/kg.
In data set [3] the test system is Plasmodium berghei. The data set can be described thus: Antimalarial effect against trophozoite-induced Plasmodium berghei in mice (Mus musculus) at 320 mg/kg subcutaneous dose. The data set is classed as functional.
Data set [4] concerns Mus musculus. In words: Number of mice cured at a subcutaneous dose of 160 mg/kg. The data set is classed as functional.
For data set [5], the system named is Mus musculus. The data set can be described thus: Number of mice cured at a subcutaneous dose of 320 mg/kg. The data set is classed as functional.
Data set [6] has as its system Plasmodium berghei. The data set can be described thus: Antimalarial effect against trophozoite-induced Plasmodium berghei in mice (Mus musculus) after 20 mg/kg subcutaneous dose. The data set is classed as functional.
In data set [7] the test system is Mus musculus. In words: Number of mice cured at a dose of 640 mg/kg sc. The data set is classed as functional. The conditions noted are these: route subcutaneous.
The test system of data set [8] is Plasmodium berghei. The data set can be described thus: Antimalarial effect against trophozoite-induced Plasmodium berghei in mice (Mus musculus) at 160 mg/kg subcutaneous dose. The data set is classed as functional.
In data set [9] the test system is Plasmodium berghei. The data set can be described thus: Antimalarial effect against trophozoite-induced Plasmodium berghei in mice (Mus musculus) after 40 mg/kg subcutaneous dose. The data set is classed as functional.
For data set [10], the system named is Plasmodium berghei. The data set can be described thus: Antimalarial activity against trophozoite-induced Plasmodium berghei in mice (Mus musculus) at 160 mg/kg subcutaneous dose. The data set is classed as functional.
In data set [11] the test system is Plasmodium berghei. The data set can be described thus: Antimalarial activity against trophozoite-induced Plasmodium berghei in mice (Mus musculus). The data set is classed as functional.
For data set [12], the system named is Mus musculus. In words: Number of toxic deaths at a dose of 320 mg/kg. The data set is classed as toxicity, organism-based. On the set-up: dose 320 mg/kg. The note with it: in vivo.
A short description of data set [13]: The ratio of SD90 of the quinine hydrochloride, to the SD90 of the test substance for the Dose of 35 mg/kg. The data set is classed as functional.
Data set [14] has as its system Plasmodium berghei. In words: (§1) Antimalarial effect against trophozoite-induced Plasmodium berghei in mice (Mus musculus) at 640 mg/kg subcutaneous dose. The data set is classed as functional.
Data set [15] can be described thus: The ratio of SD90 of the quinine hydrochloride, to the SD90 of the test substance for the Dose of mg/kg. The data set is classed as functional.
Data set [16] deals with Plasmodium berghei. The description is as §1. The data set is classed as functional. This is another data set of the same source.
Data set [17] can be described thus: The ratio of SD90 of the quinine hydrochloride, to the SD90 of the test substance for the Dose of 91 […]. The data set is classed as functional.
Data set [18] in a line: The ratio of SD90 of the quinine hydrochloride, to the SD90 of the test substance for the Dose of 9.2 mg/kg. The data set is classed as functional.
The subject of data set [19] is Mus musculus. The data set can be described thus: Antimalarial effect against trophozoite-induced Plasmodium berghei in mice (Mus musculus) at dosage of 640 mg/kg after subcutaneous administration; No. of mice (Mus musculus) surviving after 60 days 4. The data set is classed as functional.
The nature of data set [20]: The ratio of SD90 of the quinine hydrochloride, to the SD90 of the test substance for the Dose of 63 mg/kg. The data set is classed as functional.
A short description of data set [21]: The ratio of SD90 of the quinine hydrochloride, to the SD90 of the test substance for the Dose of 47 mg/kg. The data set is classed as functional.
In data set [22] the test system is Mus musculus. The data set can be described thus: Antimalarial effect against trophozoite induced Plasmodium berghei in mice (Mus musculus) at dosage of 160 mg/kg after subcutaneous administration; No. of mice (Mus musculus) surviving after 60 days 1. The data set is classed as functional.
The nature of data set [23]: The ratio of SD90 of the quinine hydrochloride, to the SD90 of the test substance for the Dose of 82 mg/kg. The data set is classed as functional.

Values joined by “and” are separate entries in the source; they are usually repeats but may differ in a detail not shown here. Equal values may be shown once.

Regarding `CN(C)C1CCC(Nc2nc(Nc3ccc(Cl)c(Cl)c3)c3ccccc3n2)CC1` (centres undefined), the MST in the data set on Plasmodium berghei [1] was 7.9 days; in the data set on Plasmodium berghei [3] it was 9.9 days; in the data set with Plasmodium berghei [6], 0.3 days; in the data set with Plasmodium berghei [8], 12.9 days; with Plasmodium berghei [9] (40 mg/kg) it was 4.1 days and 3.7 days; in the data set with Plasmodium berghei [10], 12.6 days. Besides, the “No. of toxic deaths” value with Mus musculus [2] is listed as 2. The No. of survivals in the data set on Mus musculus [4] worked out at 2; with Mus musculus [5], 2; in the data set with Mus musculus [7], 3.

Turning to `CCN(CC)CCNc1nc(Nc2ccc(Cl)cc2)nc2ccccc12`, the MST in the data set with Plasmodium berghei [1] was 6.2 days; in the data set with Plasmodium berghei [6] it was 1.6 days; in the data set on Plasmodium berghei [8], 11.1 days; with Plasmodium berghei [9] (40 mg/kg), 4.1 days and 4.6 days. The SD90 in the data set with Plasmodium berghei [11] amounted to 35 mg/kg/day. Besides, the “No. of toxic deaths” value in the data set with Mus musculus [12] came out at 2. Also, the No. of survivals with Mus musculus [4] amounted to 2; in the data set on Mus musculus [5], 3; in the data set on Mus musculus [7], 5. Further, the Ratio in data set [13] worked out at 2.1.

For `CCN(CC)Cc1cc(Nc2nc(NCCN3CCCC3)c3ccccc3n2)ccc1O`, the MST with Plasmodium berghei [1] turned out to be 2.1 days; in the data set on Plasmodium berghei [6], 0.3 days; with Plasmodium berghei [8] it was 10.2 days; with Plasmodium berghei [9], 1.7 days. Moreover, the “No. of toxic deaths” value with Mus musculus [2] and in the data set with Mus musculus [12] was 1 each time. The No. of survivals with Mus musculus [5] and with Mus musculus [7] was 1 throughout.

For `FC(F)(F)c1cc(Nc2nc(NCCN3CCCC3)c3ccccc3n2)cc(C(F)(F)F)c1`, the SD90 in the data set with Plasmodium berghei [11] is 105 mg/kg/day. Moreover, the figures for the MST with Plasmodium berghei [14], in the data set on Plasmodium berghei [8] and with Plasmodium berghei [9] were 1 days, 0.2 days and 0.2 days, respectively. The Ratio in [15] is 105.

For the compound `CCN(CC)CCNc1nc(Nc2ccc(Cl)c(Cl)c2)nc2cc(N)ccc12`, the MST with Plasmodium berghei [1] (80 mg/kg) was 6 days and 6.3 days; in the data set on Plasmodium berghei [3] (320 mg/kg), 16.8 days and 16.9 days; with Plasmodium berghei [16], 29.8 days; with Plasmodium berghei [6] (20 mg/kg), 0.6 days and 0.9 days; in the data set on Plasmodium berghei [8] (160 mg/kg) it was 13.2 days and 13.5 days; in the data set on Plasmodium berghei [9] (40 mg/kg) it was 3.2 days and 3.5 days. The same compound came in with an SD90 in the data set with Plasmodium berghei [11] of 30.5 mg/kg/day. The values for the No. of survivals with Mus musculus [5] and with Mus musculus [7] were 3 and 4, respectively. In data set [15], the Ratio stood at 30.5.

`Brc1cccc(Nc2nc(NCCN3CCCC3)c3ccccc3n2)c1`: the MST in the data set with Plasmodium berghei [1] is 0.4 days; in the data set with Plasmodium berghei [3] it was 5 days; with Plasmodium berghei [14] (640 mg/kg) it was 8.4 days and 8.1 days; in the data set with Plasmodium berghei [6], 0.2 days; in the data set with Plasmodium berghei [8] (160 mg/kg), 4.4 days and 4 days. In the data set on Plasmodium berghei [11], this compound displayed an SD90 of 91 mg/kg/day. The Ratio in data set [17] came out at 0.8.

As for `CCN(CC)CCNc1nc(Nc2ccc(Cl)c(Cl)c2)nc2cc([N+](=O)[O-])ccc12`, the MST was 0.9 days with Plasmodium berghei [1]; 9.5 days in the data set with Plasmodium berghei [3]; 26.9 days with Plasmodium berghei [16]; 0.3 days in the data set with Plasmodium berghei [6]; 0.9 days and 1.1 days with Plasmodium berghei [8] (160 mg/kg); 0.3 days in the data set on Plasmodium berghei [9]. Further, the MST in the data set on Mus musculus [19] was found to be 21.9 days. In the data set on Plasmodium berghei [11], this compound returned an SD90 of 9.2 mg/kg/day. Besides, in [18], the Ratio came to 8.1. The No. of survivals with Mus musculus [7] is listed as 3.

For the compound `CCN1CCCC(Nc2nc(Nc3ccc(Cl)c(Cl)c3)nc3cc(Cl)ccc23)C1` (centres undefined), the figures for the MST with Plasmodium berghei [1], in the data set on Plasmodium berghei [3] and with Plasmodium berghei [6] were 0.3 days, 0.3 days and 0.1 days, respectively. In the data set on Plasmodium berghei [11], the SD90 was 63 mg/kg/day. For the same compound, the Ratio in data set [20] stood at 1.2.

`CN(C)C1CCC(Nc2nc(Nc3ccc(Cl)c(Cl)c3)nc3ccccc23)CC1` (stereo in doubt; 24): the MST in the data set on Plasmodium berghei [1] is 6.4 days; with Plasmodium berghei [3] (320 mg/kg), 24.3 days; with Plasmodium berghei [6] (20 mg/kg), 0.4 days; in the data set with Plasmodium berghei [9] (40 mg/kg), 4.8 days and 3.8 days; in the data set on Plasmodium berghei [10] (160 mg/kg), 20.1 days and 16.5 days. In the data set with Plasmodium berghei [11], the SD90 was determined as 9.2 mg/kg/day. Besides, the No. of survivals was 1 and 2 with Mus musculus [4] (160 mg/kg); 3 with Mus musculus [5]. Further, the Ratio in data set [18] turned out to be 8.2.

Consider `CN1CCCC1CCNc1nc(Nc2ccc(Cl)c(Cl)c2)c2ccccc2n1` (centres undefined), for which the MST in the data set with Plasmodium berghei [1] (80 mg/kg) was 0.5 days and 0.7 days; in the data set with Plasmodium berghei [3], 11.2 days; in the data set with Plasmodium berghei [6], 0.3 days; in the data set on Plasmodium berghei [8] (160 mg/kg), 6.9 days and 7.1 days; in the data set on Plasmodium berghei [9], 0.5 days. Moreover, the “No. of toxic deaths” value was 2 with Mus musculus [2]; 1 and 2 with Mus musculus [12]. For the same compound, the No. of survivals with Mus musculus [5] and in the data set with Mus musculus [7] was 1 each time.

`CSc1ccc(Nc2nc(NCCCN3CCCC3)c3ccccc3n2)cc1`: the Ratio in [21] is 1.6. Also, the “No. of toxic deaths” value in the data set with Mus musculus [2] turned out to be 5. Moreover, the SD90 in the data set on Plasmodium berghei [11] came out at 47 mg/kg/day. For the same compound, the MST came to 6.8 days in the data set with Plasmodium berghei [8] and 1 days in the data set on Plasmodium berghei [9].

Take `CCN(CC)CCNc1nc(Nc2ccc(Cl)c(Cl)c2)nc2ccc(N)cc12`: the Ratio in [21] was determined as 1.6. In addition, the MST was 6.8 days in the data set with Plasmodium berghei [1]; 1.6 days and 2 days in the data set with Plasmodium berghei [6] (20 mg/kg); 3.8 days in the data set with Plasmodium berghei [9]; 29.8 days with Plasmodium berghei [10]. Further, the “No. of toxic deaths” value in the data set on Mus musculus [2] was 2. Moreover, the SD90 in the data set on Plasmodium berghei [11] worked out at 47 mg/kg/day. The No. of survivals with Mus musculus [4] was 4; in the data set on Mus musculus [5], 5; with Mus musculus [7] it was 3.

As to `CCN(CC)CCNc1nc(Nc2ccc(Cl)c(Cl)c2)c2ccccc2n1`, the MST with Plasmodium berghei [1] was 0.2 days; with Plasmodium berghei [3], 3.2 days; in the data set on Plasmodium berghei [14] (640 mg/kg) it was 10.3 days and 5.4 days and 5.9 days; in the data set on Mus musculus [22] it was 0.2 days; in the data set with Plasmodium berghei [6], 0.2 days; in the data set with Plasmodium berghei [8], 0.9 days.

With `CCN(CC)CCNc1nc(Nc2ccc(Cl)c(Cl)c2)nc2cc(NCc3ccc(Cl)c(Cl)c3)ccc12`, the Ratio in data set [23] was 0.9. Also, the MST in the data set on Plasmodium berghei [1] (80 mg/kg) was 0.3 days and 0.6 days; in the data set on Plasmodium berghei [3] (320 mg/kg), 1.7 days and 2 days and 2.5 days; in the data set with Plasmodium berghei [14] it was 8.9 days; with Plasmodium berghei [6] (20 mg/kg), 0.1 days and 0.2 days and 0.3 days; in the data set with Plasmodium berghei [8] (160 mg/kg) it was 1.3 days and 1 days and 0.7 days; in the data set on Plasmodium berghei [9] (40 mg/kg), 0.1 days and 0.2 days and 0.3 days. In the data set with Plasmodium berghei [11], the SD90 amounted to 82 mg/kg/day.

Regarding `CSc1ccc(Nc2nc(NCCN3CCCC3)c3ccccc3n2)cc1`, the MST with Plasmodium berghei [1] was 3.3 days; in the data set on Plasmodium berghei [3], 10.3 days; in the data set on Plasmodium berghei [6], 0.7 days; in the data set on Plasmodium berghei [8] (160 mg/kg) it was 5.9 days and 4.7 days; in the data set on Plasmodium berghei [9] (40 mg/kg) it was 0.9 days and 0.3 days. In the data set with Plasmodium berghei [11], the SD90 is 35 mg/kg/day. For the same compound, the Ratio in [13] was found to be 2.1.

Regarding `CCN1CCCC(Nc2nc(Nc3cc(Cl)cc(Cl)c3)nc3cc(Cl)ccc23)C1` (centres undefined), in the data set on Plasmodium berghei [11], the SD90 stood at 73 mg/kg/day. Besides, the MST was 1.6 days in the data set on Plasmodium berghei [14], 0.4 days in the data set on Plasmodium berghei [8] and 0.2 days in the data set with Plasmodium berghei [9]. Besides, the Ratio in [15] is reported as 73.

Source of the values: ChEMBL document CHEMBL1121775, “Synthesis and antimalarial effects of N2-aryl-N4-[(dialkylamino)alkyl]- and N4-aryl-N2-[(dialkylamino)alkyl]-2,4-quinazolinediamines” (J Med Chem, 1981).
